Source: patent US4252898A
≈ marks a conversion by molar mass, not a printed value. Read-outs that look alike come from different tables or passages of the source.

Columns and labels:
[1] = test system: NRRL 11459; experiment: Antibiotic sensitivity of the producing strain (sensitivity discs on seeded ISP #2 agar); type: cell-based, Streptomyces flocculus; conditions: 30° C., 14 days; also: key: +: sensitive (zones of inhibition); -: resistat (no zones of inhibition)
Experimental: (§1) The cell wall sugars are determined using a modification of the procedure of M. Lechevalier, "Chemical Methods as Criteria for the Separation of Actinomycetes Into Genera", workshop sponsored by the subcommittee on Actionomycetes of the American Society of Microbology, Dr. Thoman G. Pridham, Convenor, held at the Institute of Microbology, Rutgurs University, New Brunswick, N.J., 1971. The isomer of diaminopimelic acid is determined using the method of B. Becker Appl. Microbiol., 11 421 ([…]). Amino acid analysis is determined with washed cell wall fragments. Melanoid pigments are determined using ISP #6 (peptone-yeast extract iron agar) and ISP #7 (tyrosine agar). Inhibitors are tested by incorporating varing concentrations of inhibitors into ISP #2 agar plates and streaking the culture on the surface. Starch hydrolysis is determined by testing for the presence of starch with iodine on ISP #4 agar plates. Temperature range, NaCl tolerance, pH range, and antibiotic sensitivity are done using ISP #2 agar medium. The range of temperatures are: 25°, 28°, 30°, 34°, 37°, 40°, 45°, 50°, 55° C. NaCl tolerance is measured by adding NaCl to the agar to equal: 0, 1, 2, 3, 4, 5, 6, 8, 10, 12% and incubating at 30° C. for 7 days. Antibiotic sensitivity is determined using sensitivity discs padded onto seeded agar plates of ISP #2 medium and incubating at 30° C. for 14 days.

[2] = test system: Actinomyces israelii W855; experiment: Susceptibility of anaerobic bacterial isolates, agar dilution; type: cell-based; conditions: 27 hours incubation
[3] = test system: Eubacterium aerofaciens 1235; experiment: as above; type: cell-based; conditions: Collinsella aerofaciens, 27 hours incubation
[4] = test system: E. coli Ec-14; experiment: Disc-plate test; conditions: Escherichia coli, EC14, read-out: Disc-Plate Zone Sizes
[5] = test system: S. pyogenes C203; experiment: Disc-plate test; conditions: Streptococcus pyogenes, C203, read-out: Disc-Plate Zone Sizes
[6] = test system: Fusobacterium necrophorum 6054A; experiment: Susceptibility of anaerobic bacterial isolates, agar dilution; type: cell-based; conditions: 27 hours incubation
[7] = test system: Bacteroides melaninogenicus 1856/28; experiment: as above; type: cell-based; conditions: Prevotella intermedia, 27 hours incubation
[8] = test system: Bacteroides fragilis ssp. fragilis 1877; experiment: as above; type: cell-based; conditions: 27 hours incubation
[9] = test system: S. pneumoniae I; experiment: Disc-plate test; conditions: Streptococcus pneumoniae, read-out: Disc-Plate Zone Sizes
[10] = test system: Clostridium perfringens 81; experiment: microbe, parasite or virus in culture; type: cell-based; conditions: Clostridium perfringens, 81, 27 h
[11] = test system: S. pyogenes C203; experiment: Therapy in experimental mouse infections; conditions: Streptococcus pyogenes
[12] = test system: S. aureus 3055; experiment: Therapy in experimental mouse infections; conditions: Staphylococcus aureus, 3055, in Mus musculus
[13] = test system: S. Aureus (3 strains); experiment: Disc-plate test; conditions: Staphylococcus aureus, read-out: Disc-Plate Zone Sizes
[14] = test system: P rettgeri PR-2; experiment: Disc-plate test; conditions: read-out: Disc-Plate Zone Sizes
[15] = test system: S. aureus 3.55; experiment: Agar-dilution test; conditions: Staphylococcus aureus
[16] = test system: Peptostreptococcus anaerobius 1428; experiment: Susceptibility of anaerobic bacterial isolates, agar dilution; type: cell-based; conditions: 27 hours incubation
[17] = test system: Bacteroides fragilis ssp. fragilis 1936B; experiment: as above; type: cell-based; conditions: 27 hours incubation
[18] = test system: K. pneumoniae KL-14; experiment: Disc-plate test; conditions: Klebsiella pneumoniae, KL14, read-out: Disc-Plate Zone Sizes
[19] = test system: gram positive bacteria; experiment: Antibacterial activity in standard test procedures
[20] = test system: S. typhosa SA-12; experiment: Disc-plate test; conditions: read-out: Disc-Plate Zone Sizes
[21] = test system: Peptococcus prevoti 1281; experiment: Susceptibility of anaerobic bacterial isolates, agar dilution; type: cell-based; conditions: 27 hours incubation
[22] = test system: Peptostreptococcus intermedium 1264; experiment: as above; type: cell-based; conditions: 27 hours incubation
[23] = test system: Bacteroides fragilis ssp. thetaiotaoimicron 1438; experiment: as above; type: cell-based; conditions: 27 hours incubation
[24] = test system: Bacteroides fragilis spp. fragilis 111; experiment: as above; type: cell-based; conditions: 27 hours incubation
[25] = test system: Clostridium septicum 1128; experiment: as above; type: cell-based; conditions: 27 hours incubation
[26] = test system: S. pneumoniae I; experiment: Therapy in experimental mouse infections; conditions: Streptococcus pneumoniae
[27] = test system: Bacteroides melaninogenicus 2736; experiment: Susceptibility of anaerobic bacterial isolates, agar dilution; type: cell-based; conditions: 27 hours incubation
[28] = test system: Bacteroides corrodens 1874; experiment: as above; type: cell-based; conditions: Eikenella corrodens, 27 hours incubation
[29] = test system: Peptococcus asaccharolyticus 1302; experiment: as above; type: cell-based; conditions: Peptoniphilus asaccharolyticus, 27 hours incubation
[30] = test system: Bacteroides vulgatis 1211; experiment: as above; type: cell-based; conditions: 27 hours incubation
[31] = test system: S. faecalis X-66; experiment: Agar-dilution test; conditions: Enterococcus faecalis, X66
[32] = test system: Group D Streptococcus; experiment: Disc-plate test; conditions: read-out: Disc-Plate Zone Sizes
[33] = test system: S. aureus 3074; experiment: Agar-dilution test; conditions: Staphylococcus aureus
[34] = test system: Propionibacterium acnes 79; experiment: Susceptibility of anaerobic bacterial isolates, agar dilution; type: cell-based; conditions: Cutibacterium acnes, 27 hours incubation
[35] = test system: Fusobacterium symbiosum 1470; experiment: as above; type: cell-based; conditions: 27 hours incubation
[36] = test system: NRRL 11459; experiment: Inhibitor sensitivity of the producing strain (inhibitor in ISP #2 agar); type: cell-based, Streptomyces flocculus
Experimental: as §1

[37] = NRRL11459, NRRL 11459, ISP #2 agar plates, read-out: Inhibitor sensitivity, MIC

## CCC[C@@H]1C[C@@H](C(=O)N[C@@H]([C@H]2O[C@H](SC)[C@H](O)[C@@H](O)[C@H]2O)[C@@H](C)O)N(C)C1 [Lincomycin]
[1]; 2 μg/disc
  Antibiotic sensitivity: +

## CC[C@H]1OC(=O)[C@H](C)[C@@H](O[C@H]2C[C@@](C)(OC)[C@@H](O)[C@H](C)O2)[C@H](C)[C@@H](O[C@@H]2O[C@H](C)C[C@H](N(C)C)[C@H]2O)[C@](C)(O)C[C@@H](C)C(=O)[C@H](C)[C@@H](O)[C@]1(C)O [Erythromycin]
[1]; 15 μg/disc
  Antibiotic sensitivity: +

## CCC1OC(=O)CC(O)C(C)C(OC2OC(C)C(OC3CCC(O)C(C)O3)C(N(C)C)C2O)C(CCO)CC(C)C(=O)C=CC2(C)OC2C1C (centres unmarked)
[2]
  MIC: 8 µg/mL (≈ 11.2 µM)
[3]
  MIC: 8 µg/mL (≈ 11.2 µM)
[4]
  zone of inhibition at 300 µg/disc: 14 mm
[5]
  zone of inhibition at 300 µg/disc: 24.2 mm
[6]
  MIC: 128 µg/mL (≈ 179 µM)
[7]
  MIC: 64 µg/mL (≈ 89.6 µM)
[8]
  MIC: 64 µg/mL (≈ 89.6 µM)
[9]
  zone of inhibition at 300 µg/disc: 36 mm
[10]
  MIC: 16 µg/mL (≈ 22.4 µM)
[11]
  ED50: > 70 mg/kg
[12]
  ED50: > 70 mg/kg
[13]
  zone of inhibition at 300 µg/disc: 27 mm
[14]
  zone of inhibition at 300 µg/disc: 8.6 mm
[15]
  MIC: 32 µg/mL (≈ 44.8 µM)
[16]
  MIC: 16 µg/mL (≈ 22.4 µM)
[17]
  MIC: 64 µg/mL (≈ 89.6 µM)
[18]
  zone of inhibition at 300 µg/disc: 11.3 mm
[19]
  antibacterial activity: exhibit antibacterial activity, particularly against gram positive bacteria
[20]
  zone of inhibition at 300 µg/disc: 8.8 mm
[21]
  MIC: > 64 µg/mL
[22]
  MIC: 8 µg/mL (≈ 11.2 µM)
[23]
  MIC: 16 µg/mL (≈ 22.4 µM)
[24]
  MIC: 64 µg/mL (≈ 89.6 µM)
[25]
  MIC: 16 µg/mL (≈ 22.4 µM)
[26]
  ED50: > 70 mg/kg
[27]
  MIC: 64 µg/mL (≈ 89.6 µM)
[28]
  MIC: 32 µg/mL (≈ 44.8 µM)
[29]
  MIC: 8 µg/mL (≈ 11.2 µM)
[30]
  MIC: 32 µg/mL (≈ 44.8 µM)
[31]
  MIC: 16 µg/mL (≈ 22.4 µM)
[32]
  zone of inhibition at 300 µg/disc: 22.5 mm
[33]
  MIC: > 128 µg/mL
[34]
  MIC: 1 µg/mL (≈ 1.4 µM)
[35]
  MIC: 128 µg/mL (≈ 179 µM)

## O.O.O.O=C([O-])[C@H]([O-])[C@@H]([O-])C(=O)[O-].O=C([O-])[C@H]([O-])[C@@H]([O-])C(=O)[O-].[K+].[K+].[Sb+3].[Sb+3] [Antimony Potassium tartrate]
[36]; NRRL 11459, ISP #2 agar plates
  Inhibitor sensitivity, MIC: 250 µg/mL

## CCC1OC(=O)CC(O)C(C)C(OC2OC(C)C(OC3CCC(O)C(C)O3)C(N(C)C)C2O)C(CC=O)CC(C)C(=O)C=CC2(C)OC2C1C (centres unmarked)
[2]
  MIC: 4 µg/mL (≈ 5.62 µM)
[3]
  MIC: 2 µg/mL (≈ 2.81 µM)
[4]
  zone of inhibition at 100 µg/disc: 10.2 mm
[5]
  zone of inhibition at 100 µg/disc: 20 mm
[6]
  MIC: 16 µg/mL (≈ 22.5 µM)
[7]
  MIC: 64 µg/mL (≈ 89.9 µM)
[8]
  MIC: 16 µg/mL (≈ 22.5 µM)
[9]
  zone of inhibition at 100 µg/disc: 35 mm
[10]
  MIC: 2 µg/mL (≈ 2.81 µM)
[11]
  ED50: 4.65 mg/kg
[12]
  ED50: 5 mg/kg
[13]
  zone of inhibition at 100 µg/disc: 24 mm
[14]
  zone of inhibition at 100 µg/disc: 8 mm
[15]
  MIC: 1 µg/mL (≈ 1.4 µM)
[16]
  MIC: 2 µg/mL (≈ 2.81 µM)
[17]
  MIC: 32 µg/mL (≈ 45 µM)
[18]
  zone of inhibition at 100 µg/disc: 0 mm
[19]
  antibacterial activity: exhibit antibacterial activity, particularly against gram positive bacteria
[20]
  zone of inhibition at 100 µg/disc: 9.9 mm
[21]
  MIC: 32 µg/mL (≈ 45 µM)
[22]
  MIC: 16 µg/mL (≈ 22.5 µM)
[23]
  MIC: 8 µg/mL (≈ 11.2 µM)
[24]
  MIC: 64 µg/mL (≈ 89.9 µM)
[25]
  MIC: 2 µg/mL (≈ 2.81 µM)
[27]
  MIC: 32 µg/mL (≈ 45 µM)
[28]
  MIC: 32 µg/mL (≈ 45 µM)
[29]
  MIC: 2 µg/mL (≈ 2.81 µM)
[30]
  MIC: 8 µg/mL (≈ 11.2 µM)
[31]
  MIC: 4 µg/mL (≈ 5.62 µM)
[32]
  zone of inhibition at 100 µg/disc: 20 mm
[33]
  MIC: 2 µg/mL (≈ 2.81 µM)
[34]
  MIC: 2 µg/mL (≈ 2.81 µM)
[35]
  MIC: 4 µg/mL (≈ 5.62 µM)

## CN[C@H](CC(C)C)C(=O)N[C@H]1C(=O)N[C@@H](CC(N)=O)C(=O)N[C@H]2C(=O)N[C@H]3C(=O)N[C@H](C(=O)N[C@H](C(=O)O)c4cc(O)cc(O)c4-c4cc3ccc4O)[C@H](O)c3ccc(c(Cl)c3)Oc3cc2cc(c3O[C@@H]2O[C@H](CO)[C@@H](O)[C@H](O)[C@H]2O[C@H]2C[C@](C)(N)[C@H](O)[C@H](C)O2)Oc2ccc(cc2Cl)[C@H]1O [Vancomycin]
[1]; 30 μg/disc
  Antibiotic sensitivity: +

## CC(=O)[O-].[Tl+] [Thallium Acetate]
[36]
  Inhibitor sensitivity, MIC: < 10 µg/mL

## CC(=O)OCC1=C(C(=O)O)N2C(=O)[C@@H](NC(=O)Cc3cccs3)[C@H]2SC1 [Keflin]
[1]; 30 μg/disc
  Antibiotic sensitivity: -

## C[C@@H]1[C@H](O)[C@@H](C)/C=C/C=C/CC/C=C/C=C/C=C/C=C/C(O[C@H]2O[C@H](C)[C@@H](O)[C@H](N)[C@@H]2O)CC2O[C@](O)(CC(O)C(O)CCC(O)CC(O)CC(O)CC(=O)O[C@H]1C)CC(O)C2C(=O)O (some centres unmarked) [Nystatin]
[1]; 100 units/disc
  Antibiotic sensitivity: -

## [N-]=[N+]=[N-] [Sodium Azide]
[36]; NRRL11459, read-out: Inhibitor sensitivity, MIC
  MIC: 10 µg/mL

## O=[Se](O)O [Sodium Selenite]
[36]; [37]
  MIC: 25 µg/mL

## [H]/N=C(/N)N[C@H]1[C@H](O)[C@@H](O)[C@H](O[C@@H]2O[C@@H](C)[C@](O)(C=O)[C@H]2O[C@@H]2O[C@@H](CO)[C@H](O)[C@@H](O)[C@@H]2NC)[C@@H](N/C(N)=N\[H])[C@@H]1O [Streptomycin]
[1]; 10 μg/disc
  Antibiotic sensitivity: +

## O=C([O-])CC(O)(CC(=O)[O-])C(=O)[O-].[Bi+3] [Bismuth Citrate]
[36]; NRRL 11459, ISP #2 agar plates
  Inhibitor sensitivity, MIC: > 500 µg/mL

## CN(C)c1ccc(C(=C2C=CC(=[N+](C)C)C=C2)c2ccc(N(C)C)cc2)cc1 [Crystal Violet]
[36]; [37]
  MIC: 1 µg/mL

## Polymixin B
[1]; 300 units/disc
  Antibiotic sensitivity: +

## Cc1cc2nc3cc(C)c(N)cc3[n+](-c3ccccc3)c2cc1N.[Cl-] [Safranin]
[36]; NRRL 11459, ISP #2 agar plates
  Inhibitor sensitivity, MIC: 10 µg/mL

## O=[Te]([O-])[O-].[K+].[K+] [Potassium Tellurite]
[36]; NRRL 11459, ISP #2 agar plates
  Inhibitor sensitivity, MIC: > 500 µg/mL

## CN(C)[C@@H]1C(O)=C(C(N)=O)C(=O)[C@@]2(O)C(O)=C3C(=O)c4c(O)cccc4[C@@](C)(O)[C@H]3C[C@@H]12 [Tetracycline]
[1]; 30 μg/disc
  Antibiotic sensitivity: +
